Test results reported in US20220257629A1, “COMPOSITIONS AND METHODS FOR UPREGULATION OF HUMAN FETAL HEMOGLOBIN” (THE UAB RESEARCH FOUNDATION, priority 2019, published 2022).

How the values were obtained:
[1] = system: human CD34+-differentiated erythroid cells; test: FACS analysis of fetal hemoglobin expressing erythroid cells (F cells); assay type: cell-based; details: 0.3, 0.5 or 0.7 μM, 14 days, compared to DMSO control (FIG. 1)
Excerpt: For fetal hemoglobin analysis, one million erythroid cells, differentiated for 14 days with or without idoxuridine in the medium, were washed with PBS that included 0.1% BSA, and fixed in 0.05% Glutaraldehyde (Sigma, G5882, St. Louis, Mo.). The fixed cells were washed three times with PBS that included 0.1% BSA, followed by permeabilization in 1% Triton X-100 (Life Technologies, HFH-10, Carlsbad, Calif.), before immunostaining with an antibody directed against HbF (Invitrogen, MHFH04, Carlsbad, Calif.).

[2] = system: human CD34+-differentiated erythroid cells; test: Isoelectric focusing gel of the samples analyzed by HPLC; assay type: cell-based; details: idoxuridine 0.3 and 0.65 μM (FIG. 4)
[3] = system: human CD34+-differentiated erythroid cells; test: Library screen, RT-PCR of γ- and β-globin expression; assay type: cell-based
Method: (§1) Briefly, for the screen, 5×10^5 CD34^+ cells were expanded for six days in StemSpan SFEM medium (StemCell Technologies Inc., Vancouver, Canada) with SCF, IL-3, TPO and Flt-3 ligand. After expansion, 100,000 cells were distributed to each well (in a 24-well plate) and grown in SFEM medium with 2% P/S, 20 ng/ml SCF, 1 U/ml Epo, 5 ng/ml IL-3, 2 μM dexamethasone, and 1 μM β-estradiol. Individual small molecules were added to each well. Cells were differentiated for another nine days (for RNA analysis) or fourteen days (for hemoglobin analysis). The γ- and β-globin expression in each sample were analyzed by RT-PCR or HPLC.

[4] = system: human β-globin BAC transgenic mice; test: In vivo globin gene expression by qRT-PCR; parameters: species or system mouse; details: 100 mg/kg daily intraperitoneal injections for four weeks, blood, qRT-PCR (FIG. 6)
Method: To test if idoxuridine can induce mouse Ey2 and human γ-globin expression in human β-BAC transgenic mice, 100 mg/kg body weight of Idoxuridine were injected intraperitoneally (IP) into mice for 4 weeks. Blood samples were obtained at the end of Idoxuridine treatment and cDNAs were synthesized. Mouse Ey2 and human γ-globin expression were analyzed by qRT-PCR.

[5] = system: human CD34+-differentiated erythroid cells; test: RNAseq gene expression; assay type: cell-based
[6] = system: human CD34+-differentiated erythroid cells; test: Western blot analysis of KLF1, BCL11A and LRF; assay type: cell-based; details: 0.7 uM, 7 days, compared to DMSO (FIG. 5)
Method: To analyze the expression of KLF1, BCL11A and LRF by Western blot, whole cell extracts were prepared from erythroid cells differentiated for seven days with DMSO or 0.7 uM of idoxuridine. Antibodies used included Actb (Santa Cruz, sc-47778 HRP, Dallas, Tex.), KLF1 (Santa Cruz, sc-14034), BCL11A (Abcam, ab19489, Cambridge, UK) and LRF (Abcam, ab175918).

[7] = system: human CD34+-differentiated erythroid cells; test: HPLC hemoglobin analysis; assay type: cell-based; details: 0.3 or 0.65 μM, compared to DMSO treated cells (FIG. 2)
Method: as §1

[8] = human CD34+-differentiated erythroid cells

## O=c1[nH]c(=O)n([C@H]2C[C@H](O)[C@@H](CO)O2)cc1I [Idoxuridine, idoxuridine]
[1]
  number of erythroid cells expressing fetal hemoglobin (F cells): increases
[2]
  HbF expression (isoelectric focusing gel): upregulated
[3]
  HbF expression in a drug screen: potent inducers
[3]; [8]
  HbF expression (reverse transcriptase-PCR): upregulates
[3]; human CD34+-differentiated erythroid cells contacted with idoxuridine
  γ-globin expression: significantly increased
[4]
  human γ-globin gene expression: increased
  mouse Ey-2 gene expression: increased
[5]; Table 1
  ε-globin gene expression: reactivated
[5]; gene BCL11A, idoxuridine treated cells
  RNAseq expression, BCL11A: 478.2
[5]; gene BCL11A, idoxuridine vs DMSO control
  Fold change, BCL11A: 0.303
[5]; gene HBB, idoxuridine treated cells
  RNAseq expression, HBB: 20938
[5]; gene HBB, idoxuridine vs DMSO control
  Fold change, HBB: 0.2
[5]; gene HBD, idoxuridine treated cells
  RNAseq expression, HBD: 1798
[5]; gene HBD, idoxuridine vs DMSO control
  Fold change, HBD: 0.16
[5]; gene HBE1, idoxuridine treated cells
  RNAseq expression, HBE1: 17051
[5]; gene HBE1, idoxuridine vs DMSO control
  Fold change, HBE1: 560
[5]; gene HBG1, idoxuridine treated cells
  RNAseq expression, HBG1: 18815
[5]; gene HBG1, idoxuridine vs DMSO control
  Fold change, HBG1: 8.19
[5]; gene HBG2, idoxuridine treated cells
  RNAseq expression, HBG2: 980
[5]; gene HBG2, idoxuridine vs DMSO control
  Fold change, HBG2: 6
[5]; gene SOX6, idoxuridine treated cells
  RNAseq expression, SOX6: 13
[5]; gene SOX6, idoxuridine vs DMSO control
  Fold change, SOX6: 0.25
[5]; [8]
  BCL11A mRNA expression: decreased
  KLF1 mRNA expression: decreased
[6]
  BCL11A expression (Western blot): decreases
  KLF1 expression (Western blot): decreases
[7]
  fetal hemoglobin (HPLC): significantly increases

## O=c1[nH]c(=O)n([C@H]2C[C@H](O)[C@@H](CO)O2)cc1C(F)(F)F [Trifluridine, trifluridine]
[3]
  HbF expression in a drug screen: potent inducers
[3]; original screen
  γ-globin gene expression in the original screen: reactivated
